15 compounds from patent US20240383856A1 (Zedira GmbH, priority 2021, published 2024) can be followed below.

Some results are limits rather than exact numbers.

The IC50 is the point on the concentration scale where inhibition reaches its midpoint. Usually logD stands for the decadic logarithm of the distribution of all forms, ionised or not, between an organic phase and buffer at a given pH. A higher logD goes with higher lipophilicity. The Papp is a coefficient for how fast a substance crosses the barrier.

The target of data set [1] is T1, recombinant human transglutaminase 2 (Homo sapiens, UniProt P21980).
T1 construct: purchased Zedira T022
T1 sequence (P21980 1-687): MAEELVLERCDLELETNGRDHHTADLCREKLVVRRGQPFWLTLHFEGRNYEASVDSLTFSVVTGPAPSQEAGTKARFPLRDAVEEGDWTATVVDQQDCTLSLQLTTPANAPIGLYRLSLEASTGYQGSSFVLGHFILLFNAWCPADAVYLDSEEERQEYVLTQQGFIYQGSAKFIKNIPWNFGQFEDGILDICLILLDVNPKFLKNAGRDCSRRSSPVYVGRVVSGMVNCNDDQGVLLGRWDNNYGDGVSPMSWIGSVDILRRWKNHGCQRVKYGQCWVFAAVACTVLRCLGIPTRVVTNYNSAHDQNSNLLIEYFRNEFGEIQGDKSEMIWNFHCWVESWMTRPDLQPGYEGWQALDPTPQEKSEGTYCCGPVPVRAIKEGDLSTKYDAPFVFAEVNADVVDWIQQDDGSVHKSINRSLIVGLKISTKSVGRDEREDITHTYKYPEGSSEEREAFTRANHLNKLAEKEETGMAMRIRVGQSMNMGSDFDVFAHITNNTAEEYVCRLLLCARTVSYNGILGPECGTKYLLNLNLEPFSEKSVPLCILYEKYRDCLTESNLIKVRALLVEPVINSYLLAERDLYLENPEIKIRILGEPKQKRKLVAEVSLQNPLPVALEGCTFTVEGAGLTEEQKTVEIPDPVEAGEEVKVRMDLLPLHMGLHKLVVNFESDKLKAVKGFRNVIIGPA
The experiment in a line: Transglutaminase assay (DCC-assay): incorporation of dansylcadaverine into dimethylcasein. In kind it is biochemical. Particulars: recombinant human TG2 10 nM; dansylcadaverine incorporation into dimethylcasein; read-out: IC50 TG2. Summed up: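 IC50 is the inhibitor level that blocks 50% of initial activity. Activity is the fluorescence slope (λex 330, λem 500 nm) between 20 and 30 min of a 37 °C run, relative to a 2% DMSO control. The enzyme is recombinant human tissue transglutaminase, 10 nM final, tested against a 1:2 inhibitor dilution series in a pH 8.0 mix with 10 mM CaCl2, 10 mM glutathione, 16.7 µM dansylcadaverine and 4 µM N,N-dimethylcasein.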

The nature of data set [2]: logD by shake flask method (octanol / PBS pH 7.4, HPLC). Particulars: octanol / PBS pH 7.4, shake flask. The format is physicochemical. Summed up:
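LogD obtained by HPLC measurement of how the compound distributes between PBS (pH 7.4) and octanol in a shake-flask experiment.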

A short description of data set [3]: Caco-2 permeability assay (CacoReady kit). In kind it is in vitro ADME. Particulars: human, Caco-2, Caco-2 barrier, CacoReady kit; above 1×10^−6 cm/s classified as permeable. An outline of the steps:
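Intestinal permeability modelled with kit-supplied Caco-2 barriers, run as the maker specifies; each compound reported as Papp.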

For `CNC(=O)C(=O)CC[C@H](NC(=O)c1nc(Br)cs1)C(=O)Nc1cccn(CC(=O)NC2C3CC4CC(C3)CC2C4)c1=O` (stereo partly drawn) [II-39, (S)-2-(4-bromothiazole-2-carboxamido)-N1-(1-(2-(2-adamantylamino)-2-oxoethyl)-2-oxo-1,2-dihydropyridin-3-yl)-N6-methyl-5-oxohexanediamide], the concentration for half-maximal inhibition (IC50) in data set [1] fell in the range of 40 to 400 nM. In data set [2], this compound registered a logD of 1 to 3. Further, the apparent permeability (Papp) in data set [3] was in the range of 1 to 10 ×10⁻⁶ cm/s.

As to `CNC(=O)C(=O)CC[C@H](NC(=O)c1cc(Br)cs1)C(=O)Nc1cccn(CC(=O)NC2C3CC4CC(C3)CC2C4)c1=O` (stereo partly drawn) [II-40, (S)-2-(4-bromothiophene-2-carboxamido)-N1-(1-(2-(2-adamantylamino)-2-oxoethyl)-2-oxo-1,2-dihydropyridin-3-yl)-N6-methyl-5-oxohexanediamide], the IC50 in data set [1] was less than 40 nM. This compound also returned a logD in data set [2] of 3 to 5. Also, the Papp in data set [3] is less than 1 ×10⁻⁶ cm/s.

Regarding `CNC(=O)C(=O)CC[C@H](NC(=O)c1scc(Br)c1C)C(=O)Nc1cccn(CC(=O)NC2C3CC4CC(C3)CC2C4)c1=O` (stereo partly drawn) [II-41, (S)-2-(4-bromo-3-methylthiophene-2-carboxamido)-N1-(1-(2-(2-adamantylamino)-2-oxoethyl)-2-oxo-1,2-dihydropyridin-3-yl)-N6-methyl-5-oxohexanediamide], in data set [1], the IC50 lay within 40 to 400 nM. This compound also came in with a logD in data set [2] of 3 to 5. In addition, in data set [3], the Papp is 1 to 10 ×10⁻⁶ cm/s.

On to `CNC(=O)C(=O)CC[C@H](NC(=O)c1sccc1Br)C(=O)Nc1cccn(CC(=O)NC2C3CC4CC(C3)CC2C4)c1=O` (stereo partly drawn) [II-42, (S)-2-(3-bromothiophene-2-carboxamido)-N1-(1-(2-(2-adamantylamino)-2-oxoethyl)-2-oxo-1,2-dihydropyridin-3-yl)-N6-methyl-5-oxohexanediamide], for which, in data set [1], the IC50 lay in the range of 40 to 400 nM. This compound had a pH-dependent lipophilicity (logD) in data set [2] of 1 to 3. The same compound came in with a Papp in data set [3] of 1 to 10 ×10⁻⁶ cm/s.

For `CNC(=O)C(=O)CC[C@H](NC(=O)c1scc(C)c1Cl)C(=O)Nc1cccn(CC(=O)NC2C3CC4CC(C3)CC2C4)c1=O` (stereo partly drawn) [II-43, (S)-2-(3-chloro-4-methylthiophene-2-carboxamido)-N1-(1-(2-(2-adamantylamino)-2-oxoethyl)-2-oxo-1,2-dihydropyridin-3-yl)-N6-methyl-5-oxohexanediamide], in data set [1], the IC50 was 400 to 2500 nM. Also, in data set [2], the logD lay in the range of 1 to 3. Besides, the Papp in data set [3] was 1 to 10 ×10⁻⁶ cm/s.

On to `CNC(=O)C(=O)CC[C@H](NC(=O)c1cc(Br)c(Cl)s1)C(=O)Nc1cccn(CC(=O)NC2C3CC4CC(C3)CC2C4)c1=O` (stereo partly drawn) [II-44, (S)-2-(4-bromo-5-chlorothiophene-2-carboxamido)-N1-(1-(2-(2-adamantylamino)-2-oxoethyl)-2-oxo-1,2-dihydropyridin-3-yl)-N6-methyl-5-oxohexanediamide], for which, in data set [1], the IC50 was less than 40 nM. In addition, the logD in data set [2] fell in the range of 3 to 5. In addition, in data set [3], the Papp lay within 1 to 10 ×10⁻⁶ cm/s.

With `CNC(=O)C(=O)CC[C@H](NC(=O)c1cc(Br)c(Br)s1)C(=O)Nc1cccn(CC(=O)NC2C3CC4CC(C3)CC2C4)c1=O` (stereo partly drawn) [II-45, (S)-2-(4,5-dibromothiophene-2-carboxamido)-N1-(1-(2-(2-adamantylamino)-2-oxoethyl)-2-oxo-1,2-dihydropyridin-3-yl)-N6-methyl-5-oxohexanediamide], the IC50 in data set [1] is less than 40 nM. This compound had a log distribution coefficient (logD) in data set [2] of 3 to 5. Besides, in data set [3], the apparent permeability (Papp) lay within 1 to 10 ×10⁻⁶ cm/s.

Take `CNC(=O)C(=O)CC[C@H](NC(=O)c1sc(Br)c(Br)c1OC)C(=O)Nc1cccn(CC(=O)NC2C3CC4CC(C3)CC2C4)c1=O` (stereo partly drawn) [II-46, (S)-2-(4,5-dibromo-3-methoxythiophene-2-carboxamido)-N1-(1-(2-(2-adamantylamino)-2-oxoethyl)-2-oxo-1,2-dihydropyridin-3-yl)-N6-methyl-5-oxohexanediamide]: the 50% inhibitory concentration (IC50) in data set [1] lay in the range of 40 to 400 nM. Moreover, in data set [2], the logD is 3 to 5. In data set [3], this compound displayed an apparent permeability coefficient (Papp) of less than 1 ×10⁻⁶ cm/s.

Regarding `CNC(=O)C(=O)CC[C@H](NC(=O)c1cc(Br)co1)C(=O)Nc1cccn(CC(=O)NC2C3CC4CC(C3)CC2C4)c1=O` (stereo partly drawn) [II-47, (S)-2-(4-bromofuran-2-carboxamido)-N1-(1-(2-(2-adamantylamino)-2-oxoethyl)-2-oxo-1,2-dihydropyridin-3-yl)-N6-methyl-5-oxohexanediamide], the concentration for half-maximal inhibition (IC50) in data set [1] is less than 40 nM. This compound also displayed a logD in data set [2] of 1 to 3. This compound also came in with a Papp in data set [3] of 1 to 10 ×10⁻⁶ cm/s.

Regarding `CNC(=O)C(=O)CC[C@H](NC(=O)c1cc(Br)c(Br)o1)C(=O)Nc1cccn(CC(=O)NC2C3CC4CC(C3)CC2C4)c1=O` (stereo partly drawn) [II-48, (S)-2-(4,5-dibromofuran-2-carboxamido)-N1-(1-(2-(2-adamantylamino)-2-oxoethyl)-2-oxo-1,2-dihydropyridin-3-yl)-N6-methyl-5-oxohexanediamide], the IC50 in data set [1] is less than 40 nM. Moreover, the pH-dependent lipophilicity (logD) in data set [2] was 3 to 5. The compound further had an apparent permeability coefficient (Papp) in data set [3] of 1 to 10 ×10⁻⁶ cm/s.

Take `CNC(=O)C(=O)CC[C@H](NC(=O)c1cc(Cl)c(Cl)s1)C(=O)Nc1cccn(CC(=O)NC2C3CC4CC(C3)CC2C4)c1=O` (stereo partly drawn) [II-49, (S)-2-(4,5-dichlorothiophene-2-carboxamido)-N1-(1-(2-(2-adamantylamino)-2-oxoethyl)-2-oxo-1,2-dihydropyridin-3-yl)-N6-methyl-5-oxohexanediamide]: the IC50 in data set [1] is less than 40 nM. The logD in data set [2] is 3 to 5. Also, in data set [3], the Papp fell in the range of 1 to 10 ×10⁻⁶ cm/s.

On to `CNC(=O)C(=O)CC[C@H](NC(=O)[C@@H]1CCCN1C(C)=O)C(=O)Nc1cccn(CC(=O)NC2C3CC4CC(C3)CC2C4)c1=O` (stereo partly drawn) [II-50, (S)-2-((S)-1-acetylpyrrolidine-2-carboxamido)-N1-(1-(2-(2-adamantylamino)-2-oxoethyl)-2-oxo-1,2-dihydropyridin-3-yl)-N6-methyl-5-oxohexanediamide], for which, in data set [1], the half-inhibitory concentration (IC50) is less than 40 nM. Also, the logD in data set [2] is less than 1. In data set [3], this compound returned a Papp of less than 1 ×10⁻⁶ cm/s.

In the case of `CNC(=O)C(=O)CC[C@H](NC(=O)c1cnnn1C)C(=O)Nc1cccn(CC(=O)NC2C3CC4CC(C3)CC2C4)c1=O` (stereo partly drawn) [II-51, (S)-N1-(1-(2-(2-adamantylamino)-2-oxoethyl)-2-oxo-1,2-dihydropyridin-3-yl)-N6-methyl-2-(1-methyl-1H-1,2,3-triazole-5-carboxamido)-5-oxohexanediamide], in data set [1], the IC50 lay within 40 to 400 nM. The same compound had a logD in data set [2] of less than 1. In addition, in data set [3], the Papp lay within 1 to 10 ×10⁻⁶ cm/s.

Regarding `CNC(=O)C(=O)CC[C@H](NC(=O)c1nn[nH]n1)C(=O)Nc1cccn(CC(=O)NC2C3CC4CC(C3)CC2C4)c1=O` (stereo partly drawn) [II-52, (S)-N1-(1-(2-(2-adamantylamino)-2-oxoethyl)-2-oxo-1,2-dihydropyridin-3-yl)-N6-methyl-5-oxo-2-(2H-tetrazole-5-carboxamido)hexanediamide], the IC50 in data set [1] is 400 to 2500 nM. For the same compound, in data set [2], the logD is less than 1. Moreover, the Papp in data set [3] was less than 1 ×10⁻⁶ cm/s.

As to `CNC(=O)C(=O)CC[C@H](NC(=O)c1cnccn1)C(=O)Nc1cccn(CC(=O)NC2C3CC4CC(C3)CC2C4)c1=O` (stereo partly drawn) [II-53, (S)-N1-(1-(2-(2-adamantylamino)-2-oxoethyl)-2-oxo-1,2-dihydropyridin-3-yl)-N6-methyl-5-oxo-2-(pyrazine-2-carboxamido)hexanediamide], the half-maximal inhibitory concentration (IC50) in data set [1] fell in the range of 40 to 400 nM. For the same compound, the logD in data set [2] lay in the range of 1 to 3. In data set [3], this compound came in with an apparent permeability (Papp) of less than 1 ×10⁻⁶ cm/s.
